Laboratory results from PubChem BioAssay AID248 (DTP/NCI, 2004).
“And” between values parts separate entries of the source, which are not always exact repeats. Equal values may be shown once. Inconclusive results and toxic doses are left out. No stated cut-off is given here; in the data, active means T/C of 150% or more; inactive means T/C below 125%.

Test system: L1210 leukemia ip in BDF1 mice, survival T/C
Assay: NCI In Vivo Anticancer Drug Screen. Data for tumor model L1210 Leukemia (intraperitoneal) in B6D2F1 (BDF1) mice
Details: endpoint: mean survival time, higher = longer survival
Outline: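 Mice bearing the transplanted tumor received compound or vehicle. Survival of the treated group was divided by that of the vehicle-treated control group to give the ratio.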

[1] = dose: 100.0 mg/kg/injection, schedule: Q01DX001 (ip), vehicle: saline
[2] = dose: 200.0 mg/kg/injection, schedule: Q01DX001 (ip), vehicle: saline
[3] = dose: 400.0 mg/kg/injection, schedule: Q01DX001 (ip), vehicle: saline
[4] = dose: 100.0 mg/kg/injection, schedule: Q04DX002 (ip), vehicle: Klucel (hydroxypropylcellulose) (HPC)
[5] = dose: 200.0 mg/kg/injection, schedule: Q04DX002 (ip), vehicle: Klucel (hydroxypropylcellulose) (HPC)
[6] = dose: 400.0 mg/kg/injection, schedule: Q04DX002 (ip), vehicle: Klucel (hydroxypropylcellulose) (HPC)
[7] = dose: 50.0 mg/kg/injection, schedule: Q01DX009 (ip), vehicle: saline
[8] = dose: 100.0 mg/kg/injection, schedule: Q01DX009 (ip), vehicle: saline
[9] = dose: 200.0 mg/kg/injection, schedule: Q01DX009 (ip), vehicle: saline

Measured: T/C

Nc1nc(CNc2ccc(Cl)cc2)nc(Nc2ccccc2)n1
inactive: dose: 100.0 mg/kg/injection, schedule: Q04DX003 (ip), vehicle: saline with Tween-80 93 % of control | dose: 200.0 mg/kg/injection, schedule: Q04DX003 (ip), vehicle: saline with Tween-80 89 % of control | dose: 400.0 mg/kg/injection, schedule: Q04DX003 (ip), vehicle: saline with Tween-80 89 % of control

C/C=C/C=C/CC
inactive: [1] 109 % of control | [2] 102 % of control | [3] 109 % of control

CC(=O)Nc1c(C)c(NC(C)=O)c(C)c(NC(C)=O)c1C
inactive: dose: 75.0 mg/kg/injection, schedule: Q01DX001 (ip), vehicle: Klucel (hydroxypropylcellulose) (HPC) 90 % of control | dose: 75.0 mg/kg/injection, schedule: Q01DX009 (ip), vehicle: Klucel (hydroxypropylcellulose) (HPC) 94 % of control | dose: 150.0 mg/kg/injection, schedule: Q01DX001 (ip), vehicle: Klucel (hydroxypropylcellulose) (HPC) 101 % of control | dose: 300.0 mg/kg/injection, schedule: Q01DX001 (ip), vehicle: Klucel (hydroxypropylcellulose) (HPC) 92 % of control

CC1(c2ccc3ccccc3c2)OCC2(CCCCC2)CO1
inactive: dose: 50.0 mg/kg/injection, schedule: Q04DX002 (ip), vehicle: Klucel (hydroxypropylcellulose) (HPC) 93 % of control | [4] 100 % of control | [5] 100 % of control | [6] 96 % of control and 97 % of control

O=C(O)CSc1ccc([N+](=O)[O-])cc1[N+](=O)[O-]
inactive: [4] 100 % of control | [5] 96 % of control | [6] 96 % of control

S=C(n1ccnc1)n1ccnc1
inactive: dose: 25.0 mg/kg/injection, schedule: Q01DX009 (ip), vehicle: saline 100 % of control | dose: 25.0 mg/kg/injection, schedule: Q04DX003 (ip), vehicle: saline 106 % of control | [7] 95 % of control | dose: 50.0 mg/kg/injection, schedule: Q04DX003 (ip), vehicle: saline 105 % of control | [8] 103 % of control | dose: 100.0 mg/kg/injection, schedule: Q04DX003 (ip), vehicle: saline 103 % of control | dose: 150.0 mg/kg/injection, schedule: Q01DX009 (ip), vehicle: saline 94 % of control | dose: 225.0 mg/kg/injection, schedule: Q01DX009 (ip), vehicle: saline 92 % of control

CCCCCCOC(=O)N1CCN(c2ccccc2)CC1
inactive: [7] 106 % of control | [8] 92 % of control | [9] 90 % of control

C=CCN(CC=C)P(=O)(N1CC1)N1CC1
inactive: dose: 6.2 mg/kg/injection, schedule: Q01DX001 (ip), vehicle: saline 88 % of control | dose: 12.5 mg/kg/injection, schedule: Q01DX001 (ip), vehicle: saline 88 % of control | dose: 25.0 mg/kg/injection, schedule: Q01DX001 (ip), vehicle: saline 88 % of control | dose: 50.0 mg/kg/injection, schedule: Q01DX001 (ip), vehicle: saline 88 % of control

O=C1C=C(C2CCCCC2)C(=O)C2CCCCC12 (stereo unspecified)
inactive: dose: 100.0 mg/kg/injection, schedule: Q01DX001 (ip), vehicle: Klucel (hydroxypropylcellulose) (HPC) 107 % of control | [8] 92 % of control | dose: 200.0 mg/kg/injection, schedule: Q01DX001 (ip), vehicle: Klucel (hydroxypropylcellulose) (HPC) 105 % of control | [9] 91 % of control | dose: 400.0 mg/kg/injection, schedule: Q01DX001 (ip), vehicle: Klucel (hydroxypropylcellulose) (HPC) 114 % of control | dose: 400.0 mg/kg/injection, schedule: Q01DX009 (ip), vehicle: saline 86 % of control

O=C(Nc1ccc(CC2=NCCN2)cc1)c1cccc(C(=O)Nc2ccc(CC3=NCCN3)cc2)c1
inactive: dose: 6.5 mg/kg/injection, schedule: Q01DX Z (ip), vehicle: carboxymethylcellulose (CMC) 100 % of control | dose: 9.7 mg/kg/injection, schedule: Q01DX Z (ip), vehicle: carboxymethylcellulose (CMC) 93 % of control | dose: 14.6 mg/kg/injection, schedule: Q01DX Z (ip), vehicle: carboxymethylcellulose (CMC) 94 % of control | dose: 22.0 mg/kg/injection, schedule: Q01DX Z (ip), vehicle: carboxymethylcellulose (CMC) 94 % of control | dose: 22.2 mg/kg/injection, schedule: Q01DX Z (ip), vehicle: carboxymethylcellulose (CMC) 95 % of control

CCOC(=O)/C=C(/N)c1c(C)[nH]c2ccccc12
inactive: [1] 102 % of control | [2] 113 % of control | [3] 87 % of control
